# Measurements as given in ChEMBL document CHEMBL1129361, “Modulators of leukotriene biosynthesis and receptor activation” (J Med Chem, 1996).
# Activity calls are given as the source filed them. The rule behind the calls is not given here.
# Tests used:
# [1] = molecular target: T1, Cysteinyl leukotriene receptor (Homo sapiens, UniProt Q9Y271+Q9NS75); test: Binding affinity against Cysteinyl leukotriene D4 receptor; assay type: protein assay
# T1 sequence (Q9Y271 whole entry): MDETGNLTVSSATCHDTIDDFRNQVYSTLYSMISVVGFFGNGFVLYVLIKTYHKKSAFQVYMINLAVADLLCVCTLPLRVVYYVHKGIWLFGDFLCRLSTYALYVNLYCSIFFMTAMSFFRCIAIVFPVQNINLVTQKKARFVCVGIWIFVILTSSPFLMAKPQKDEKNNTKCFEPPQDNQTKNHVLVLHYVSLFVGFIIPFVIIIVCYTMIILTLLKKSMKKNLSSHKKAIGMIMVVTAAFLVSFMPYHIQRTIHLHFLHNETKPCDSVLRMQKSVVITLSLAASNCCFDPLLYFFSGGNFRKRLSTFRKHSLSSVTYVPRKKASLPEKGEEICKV
# T1 sequence (Q9NS75 whole entry): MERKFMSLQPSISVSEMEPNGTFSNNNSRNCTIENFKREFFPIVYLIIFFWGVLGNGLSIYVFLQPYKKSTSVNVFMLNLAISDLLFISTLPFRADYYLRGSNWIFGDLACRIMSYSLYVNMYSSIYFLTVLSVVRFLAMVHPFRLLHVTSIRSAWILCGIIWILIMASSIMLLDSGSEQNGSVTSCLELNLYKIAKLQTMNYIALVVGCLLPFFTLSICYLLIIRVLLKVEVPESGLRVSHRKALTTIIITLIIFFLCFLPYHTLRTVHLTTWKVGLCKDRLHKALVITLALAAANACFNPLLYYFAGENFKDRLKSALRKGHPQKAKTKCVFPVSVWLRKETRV
# Homo sapiens [2] = test: LTD4 induced broncho constriction (shift in dose response curve 2 hr following 800 mg oral dose); assay type: functional
# Cavia porcellus [3] = test: Compound was tested in vivo for LTB4 induced neutrophil chemotaxis in guinea pig.(orally) at duration 21 h; assay type: functional; conditions: po
# Homo sapiens [4] = species: Homo sapiens; test: Compound was tested in vitro for inhibitory activity in LTB4 induced chemotaxis; assay type: functional, organism-based
# Homo sapiens [5] = species: Homo sapiens; test: Compound was tested in vitro for inhibitory activity in LTB4 induced neutrophil degranulation.; assay type: functional, organism-based
# [6] = molecular target: Leukotriene B4 receptor 1 (Homo sapiens, UniProt Q15722); test: Compound was tested for inhibitory activity against human neutrophil LTB4 receptor binding
# [7] = Phase 1 oral half life was determined; assay type: ADME, organism-based; conditions: human, in vivo
# Cavia porcellus [8] = test: Compound was tested for in vivo inhibition on gp AA bronchospasm.; assay type: functional; conditions: Bronchiole
# Cavia porcellus [9] = test: Compound was tested for in vivo inhibition on gp antigen bronchospasm.; assay type: functional; conditions: Bronchiole
# Homo sapiens [10] = species: Homo sapiens; test: Compound was tested for in vitro inhibition on human whole blood.; assay type: functional
# Mus musculus [11] = test: Compound was tested for in vivo inhibition on mouse AA ear edema.; assay type: functional
# Homo sapiens [12] = species: Homo sapiens; test: Compound was tested for in vitro inhibition on human PMNL.; assay type: functional
# RBL-1 [13] = test: Compound was tested for in vitro inhibition on broken RBL-1.; assay type: functional; conditions: Rattus norvegicus
# Rattus norvegicus [14] = test: Compound was tested for in vivo inhibition on rat peritoneal anaphylaxis.; assay type: functional
# Cavia porcellus [15] = test: Compound was tested in vivo inhibitory activity against LTB4 induced neutrophil influx in guinea pig(orally); assay type: functional; conditions: po
# Cavia porcellus [16] = test: Compound was tested in vivo inhibitory activity against LTB4 induced neutropenia in guinea pig.(orally); assay type: functional; conditions: po
# Homo sapiens [17] = species: Homo sapiens; test: Compound was tested in vitro inhibitory activity against human neutrophil degranulation.; assay type: functional
# Cavia porcellus [18] = test: Compound was tested in vivo inhibitory activity against PMA induced ear edema in guinea pig (orally); assay type: functional; conditions: po
# Cavia porcellus [19] = test: compound was tested in vivo for LTB4 induced neutrophil chemotaxis in guinea pig(orally) at duration 24 h; assay type: functional; conditions: po
# Homo sapiens [20] = species: Homo sapiens; test: Compound was tested in vitro for inhibitory activity in LTB4 induced neutrophil degranulation; assay type: functional
# Homo sapiens [21] = test: Compound was tested for inhibition of LTD4 bronchoconstriction following 4 mg/kg oral dose; active; assay type: functional, organism-based; design: dose 4 mg/kg; conditions: Lung
# Mus musculus [22] = test: Compound was tested in vivo inhibitory activity against LTB4 induced mouse peritonitis (orally); assay type: functional; conditions: po
# Cavia porcellus [23] = test: Compound was tested in vivo inhibitory activity against AA induced ear edema; assay type: functional
# Cavia porcellus [24] = test: Compound was tested in vivo inhibitory activity against LTB4 induced bronchoconstriction (intravenous); assay type: functional
# Cavia porcellus [25] = test: Compound was tested in vivo inhibitory activity against LTB4 induced bronchoconstriction (orally); assay type: functional; conditions: po
# [26] = phase 1 oral half life at a dose 50 mg - 750 mg.; assay type: ADME, organism-based; conditions: human, in vivo
# Cavia porcellus [27] = test: Compound was tested for in vivo inhibition against gp antigen bronchospasm.; assay type: functional; conditions: Bronchiole
# Homo sapiens [28] = species: Homo sapiens; test: Compound was tested for in vitro inhibition against human whole blood.; assay type: functional
# Mus musculus [29] = test: Compound was tested for in vivo inhibition against mouse AA ear edema.; assay type: functional
# Homo sapiens [30] = species: Homo sapiens; test: Compound was tested for in vitro inhibition against human PMNL.; assay type: functional
# Rattus norvegicus [31] = test: Compound was tested for in vivo inhibition against rat zymosan induced exudate.; assay type: functional
# Rattus norvegicus [32] = species: Rattus norvegicus; test: Compound was tested for in vitro inhibition against Rat PMNL; assay type: functional
# Homo sapiens [33] = species: Homo sapiens; test: Compound was tested in vitro inhibitory activity against human neutrophil CD11b/CD18.; assay type: functional
# Homo sapiens [34] = test: Compound was tested for fold shift in LTD4 dose response curve following 1 g oral dose; assay type: functional
# [35] = phase 1 oral half life at a dose 200 mg. (200 mg provided >95% inhibition of ex vivo stimulated LTB4 in blood up to 18 hour post dose); assay type: organism-based; conditions: human
# RBL-1 [36] = test: Compound was tested for in vitro inhibition against broken RBL-1.; assay type: functional; conditions: Rattus norvegicus
# Rattus norvegicus [37] = test: Compound was tested for in vivo inhibition against rat peritoneal anaphylaxis.; assay type: functional
# Monkey = test: Compound was tested for in vivo inhibition against squirrel monkey antigen bronchospasm at 1 mg/kg; assay type: functional; conditions: Bronchiole, in Primates
# Rattus norvegicus [38] = test: Compound was tested for in vivo inhibition against rat antigen bronchospasm; assay type: functional
# Rattus norvegicus [39] = test: Compound was tested for in vivo inhibition against rat ionophore LTB4 formation; assay type: functional
# [40] = Inhibitory activity against LT biosynthesis; […]; assay type: functional
# Cavia porcellus [41] = test: Compound was tested for in vivo inhibition against antigen bronchospasm; assay type: functional; conditions: Bronchiole
# Mus musculus [42] = species: Mus musculus; test: Compound was tested for in vitro inhibition against murine macrophage; assay type: functional
# Phosphodiesterase 3 = Phosphodiesterase 3 (Homo sapiens, UniProt Q14432+Q13370); test: Inhibition of Phosphodiesterase 3; assay type: protein assay
# Cavia porcellus [43] = species: Cavia porcellus; test: Compound was tested for in vitro inhibition against broken guinea pig peritoneal exudate cells; assay type: functional
# Phosphodiesterase 4 = Phosphodiesterase 4 (Homo sapiens, UniProt P27815+Q08499+Q07343+Q08493); test: Inhibition of Phosphodiesterase 4; assay type: protein assay
# Homo sapiens [44] = species: Homo sapiens; test: Compound was tested for in vitro inhibition against human PMNL; assay type: functional
# RBL-2H3 = test: Compound was tested for in vitro inhibition against 5-LO translocation in rat basophilic leukemia cells (RBL-2H3); assay type: functional, cell-based
# Rattus norvegicus [45] = species: Rattus norvegicus; test: Compound was tested for in vitro inhibition against rat blood; assay type: functional
# Sequence of Leukotriene B4 receptor 1 (Q15722 whole entry): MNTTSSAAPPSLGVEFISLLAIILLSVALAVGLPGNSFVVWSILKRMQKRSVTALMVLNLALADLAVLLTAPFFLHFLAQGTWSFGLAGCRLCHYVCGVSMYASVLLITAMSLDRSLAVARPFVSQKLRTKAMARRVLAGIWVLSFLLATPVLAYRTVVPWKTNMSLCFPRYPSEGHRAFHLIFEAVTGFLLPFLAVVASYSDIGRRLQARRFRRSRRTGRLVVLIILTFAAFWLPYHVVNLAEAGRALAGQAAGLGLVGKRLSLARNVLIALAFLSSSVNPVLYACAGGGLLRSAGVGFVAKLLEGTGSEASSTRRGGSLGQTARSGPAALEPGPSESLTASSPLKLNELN
smiles,measurement,setting,value
c1ccc(Cc2nn[nH]n2)c(COc2ccc(OCc3ccc4ccccc4n3)cc2)c1 [RG-12525],Ki,[1],3 nM
same,Activity,Homo sapiens [2],7.5
CCCc1c(OCCCOc2ccc(C(=O)NC)c(OC)c2CC2CC2)ccc2c1OC(CCC(=O)O)CC2 (configuration not stated),ED50,Cavia porcellus [3],0.09 mg/kg
same,IC50,Homo sapiens [4],38 nM
same,IC50,Homo sapiens [5],29 nM
same,IC50,[6],1.5 nM
CC(c1cc2ccccc2s1)N(O)C(N)=O (configuration not stated) [ZILEUTON],half-life,[7],3 h
same,ED50,Cavia porcellus [8],18 mg/kg
same,ED50,Cavia porcellus [9],12 mg/kg
same,IC50,Homo sapiens [10],700 nM
same,ED50,Mus musculus [11],31 mg/kg
same,IC50,Homo sapiens [12],600 nM
same,IC50,RBL-1 [13],100 nM
same,ED50,Rattus norvegicus [14],3 mg/kg
COc1ccc(/C=C/CCCCOc2cccc(OCCCCC(=O)O)c2CCC(=O)O)cc1,ED50,Cavia porcellus [15],5.3 mg/kg
same,ED50,Cavia porcellus [16],25.6 mg/kg
same,IC50,Homo sapiens [17],1600 nM
CCCc1c(OCCCOc2ccc(C(=O)NC)c(OC)c2CC2CC2)ccc2c1O[C@H](CCC(=O)O)CC2,ED50,Cavia porcellus [18],< 2.5 mg/kg
same,ED50,Cavia porcellus [19],0.07 mg/kg
same,IC50,Homo sapiens [4],32 nM
same,IC50,Homo sapiens [20],19 nM
same,IC50,[6],1.3 nM
O=C(O)CCS[C@@H](CC(=O)O)c1ccccc1CCCCCCCCc1ccccc1,Ki,[1],60 nM
same,Activity,Homo sapiens [21],Active
COc1ccc(CCCCCCCCOc2ccc(CSCc3cccc(C(=O)O)c3)nc2/C=C/C(=O)O)cc1,ED50,Mus musculus [22],7.1 mg/kg
same,ED50,Cavia porcellus [23],0.58 mg ear-1
CCCc1c(OCCCOc2cc(O)c(C(C)=O)cc2CC)ccc2c1OC(C(=O)O)CC2 (configuration not stated),ED50,Cavia porcellus [24],0.23 mg/kg
same,ED50,Cavia porcellus [25],0.5 mg/kg
O=C(O)[C@@H](c1ccc(OCc2ccc3ccccc3n2)cc1)C1CCCC1 [VELIFLAPON],half-life,[26],4 h
same,ED50,Cavia porcellus [27],6.3 mg/kg
same,IC50,Homo sapiens [28],11600 nM
same,ED50,Mus musculus [29],49 mg/kg
same,IC50,Homo sapiens [30],220 nM
same,ED50,Rattus norvegicus [31],8 mg/kg
same,IC50,Rattus norvegicus [32],26 nM
CCc1cc(-c2ccc(F)cc2)c(O)cc1OCCCOc1ccc2c(=O)c3cc(C(=O)O)ccc3oc2c1CCC(=O)O,IC50,Homo sapiens [33],1.2 nM
CCCc1c(OCCCSc2ccc([C@@H](O)[C@H](C)CC(=O)O)cc2)ccc(C(C)=O)c1O [L-649923],Ki,[1],400 nM
same,Activity,Homo sapiens [34],3.8
C[C@H](C#Cc1ccc(Cc2ccc(F)cc2)s1)N(O)C(N)=O [ATRELEUTON],half-life,[35],15 h
same,ED50,Cavia porcellus [27],4 mg/kg
same,IC50,Homo sapiens [28],150 nM
same,IC50,Homo sapiens [30],23 nM
same,IC50,RBL-1 [36],23 nM
same,ED50,Rattus norvegicus [37],0.6 mg/kg
CCCc1c(OCCCS(=O)(=O)c2ccc(C(=O)CCC(=O)O)cc2)ccc(C(C)=O)c1O [L-648051],Ki,[1],6200 nM
CC(C)c1ccc2c(c1)c(SC(C)(C)C)c(CC(C)(C)C(=O)O)n2Cc1ccc(Cl)cc1,inhibition in vivo at 1 mg/kg,Monkey,85%
same,ED50,Rattus norvegicus [38],0.036 mg/kg
same,ED50,Rattus norvegicus [39],0.2 mg/kg
same,IC50,[40],5 nM
C[C@H](C(=O)O)c1ccc2ccc(OCc3ccc4ccccc4n3)cc2c1.NC(CO)(CO)CO,ED50,Cavia porcellus [41],7.3 mg/kg
same,IC50,Mus musculus [42],160 nM
same,IC50,Phosphodiesterase 3,15800 nM
same,IC50,Cavia porcellus [43],5700 nM
same,IC50,Phosphodiesterase 4,8900 nM
same,IC50,Homo sapiens [44],1200 nM
same,IC50,RBL-2H3,53 nM
same,IC50,Rattus norvegicus [45],8100 nM
